According to PMC11062894, “Protein-based bandpass filters for controlling cellular signaling with chemical inputs” (Nature Chemical Biology, 2023):
Several values for one entry are separate records, joined by “and”; a condition that tells them apart may be missing. Equal entries are not always repeated.

Test system: GEMS receptors with CBPA11 (BclXL–LD3 and BclXLhigh variants), STAT3-driven SEAP in HEK293T cells
Assay: GEMS SEAP reporter assay, CBPA11 (BclXLhigh, LD3-v and BclXL-v variants) with A-1155463
Assay type: cell-based
Set-up: key to Raw data (SEAP) / SEAP, replicate values / Raw data of Figure 5b / Raw data Figure 5e / Raw data of Independent repeat of CBPA11-v1 vs CBPA11-v1-LD3v3 / Raw data of Independent repeat of CBPA11-v3 vs CBPA11-v3-LD3v3 / Raw data of Figure 5b, CBPA11-v1-LD3v3 (SEAP reporter raw value, single replicate) / Raw data of Figure 5b, CBPA11-v1 (SEAP reporter raw value, single replicate): SEAP activity in U/L in culture supernatant
Description: To rationally design a CBP responding to a chemical input, we used BclXL as the druglow receptor, LD3 as the designed binder and a designed BclXL variant as the drughigh receptor (referred to as BclXLhigh) to construct a CBP responsive to BclXL inhibitors (Fig. 4a). To design BclXLhigh, we used a multistate design computational protocol described elsewhere[26] […] Thus, BclXLhigh-v(1–3) were chosen as the functional drughigh receptors, resulting in three A-1155463-controlled CBPs (referred to as CBPA11-v(1–3)) (Fig. 4c–e).
HEK293T cells were seeded in a 96-well plate 24 h before transfection. The transfection mix in each well consisted of 3 ng of constitutive human CMV promoter driven mammalian STAT3 expression vector (PhCMV-STAT3-pA), 30 ng of STAT3-induced reporter expression (OStat3-PhCMVmin-SEAP-pA) and 50 ng of expression vectors for each GEMS receptor chain (PSV40-IgK-(drughigh receptor)-EpoRm-IL-6RBm-pA and PSV40-IgK-(druglow receptor-GGGGSX3-LD3)-EpoRm-IL-6RBm-pA). For the specific drughigh receptor and druglow receptor used in the different cellular assays, they are indicated as wild type or with mutations. Then, plasmid DNA was mixed with 50 μl opti-MEM (Thermo Fisher) and 600 ng of polyethyleneimine (Polysciences, catalog no. 24765-1). For drug treatment experiments, drugs were added 12 h post-transfection and incubated with cells for 24 h before the SEAP reporter detection assay.
SEAP activity (U l^−1) in cell culture supernatants was quantified by kinetic measurements at 405 nm (1 minute per measurement for 30 cycles) of absorbance increase due to phosphatase-mediated hydrolysis of para-nitrophenyl phosphate (pNPP).
Binding affinities of SPR drug competition assays were calculated using three-parameter nonlinear regression in GraphPad Prism (v.8.3.0). Representative data of cell assays are presented as individual values and mean values (bars). n = 3 refers to biological replicates. All IC50 or EC50 values of cell assays reported were calculated using four-parameter nonlinear regression ± s.d. Bandpass features of cutoff concentrations and Bandwidth90% were estimated based on the curve fitted using bell-shaped curve nonlinear regression in GraphPad Prism (v.8.3.0). […]
Supplementary Figure 4: Design, screening and validation of BclXLhigh variants. a) Screening of BclXLhigh variants in the GEMS platform. […]
Dissociation constant measurement of BclXLhigh-v(1-3) and LD3. Equilibrium curves are fitted using […]
BclXLhigh-v1 (purple), BclXLhigh-v2 (blue), […]
a) Bcl2high-based bandpass filter designs were developed and to respond to different concentrations of […]
corresponding inhibitor. c) Screening of Bcl2high-based bandpass filter variants in the GEMS platform.
The designed binder LD3 was fused to the druglow-receptor (PSV40-IgK-Bcl2-LD3-EpoRm-IL-6RBm-pA) in one EpoR chain and Bcl2high variants with the insensitive Bcl2 (iBcl2) as control in the other EpoR chain (PSV40-IgK-Bcl2high-EpoRm-IL-6RBm-pA). HEK293T cells were transfected with indicated […]
the mean of six biological replicates ± s.d., overlaid with a scatter dot plot of the original data points.
(1 picture or pasted object on this page, not shown here)
Supplementary Figure 6: Binding affinities and drug resistances of Bcl2high-v(2,4,5) assessed by […]
a) Measurement of dissociation constants for Bcl2high-v(2,4,5) and LD3 interactions. Equilibrium curves […]
Bcl2high-v(2,4,5) measured by SPR. 5 μM of Bcl2 or indicated variants were mixed with 10 μM of […]
Bcl2high-v2 (red), Bcl2high-v4
Supplementary Figure 7: Screening of LD3 variants in CBPA11-v(1-3) and raw data of CBPA11-v(1,3) with LD3-v3 variant. a-c) Screening of LD3 and LD3-v(1-3) variants in complex with BclXL for more sensitive CBPA11-v1 (a), CBPA11-v2 (b), CBPA11-v3 (c) in the GEMS platform. The LD3 variants replaced the role of LD3 (PSV40-IgK-BclXL-LD3-v(1-3)-EpoRm-IL-6RBm-pA) in one EpoR chain and BclXLhigh-v(1-3) in the other EpoR chain (PSV40-IgK-BclXLhigh-V(1-3)-EpoRm-IL-6RBm-pA). HEK293T cells were transfected with […]

SMILES: CN(C)CC#Cc1ccc(OCCCc2sc(N3CCc4cccc(C(=O)Nc5nc6ccccc6s5)c4C3)nc2C(=O)O)c(F)c1 [A-1155463]
- Raw data of Figure 5b, CBPA11-v1-LD3v3 (SEAP reporter raw value, single replicate) (A-1155463 10000 nM, construct CBPA11-v1-LD3v3, three replicate columns): 23.9254 and 24.8005 and 21.4423
- Raw data of Figure 5b, CBPA11-v1 (SEAP reporter raw value, single replicate) (A-1155463 10000 nM, construct CBPA11-v1, three replicate columns): 69.4522 and 75.5808 and 84.1281
- Raw data of Independent repeat of CBPA11-v1 vs CBPA11-v1-LD3v3 (CBPA11-v1, A-1155463 0.01 nM): 21.5154 and 21.2395 and 24.0629
- Normalized data Figure 5e (CBPA11-v1, A-1155463 1 nM): 6.4824 and 7.053 and 8.837
- Normalized data of Figure 5b (CBPA11-v1, A-1155463 1 nM): 1.402 and 1.595 and 1.731
- Raw data of Figure 5b (CBPA11-v1, A-1155463 1 nM): 11.9307 and 13.3631 and 14.4518
- Raw data of Independent repeat of CBPA11-v1 vs CBPA11-v1-LD3v3 (CBPA11-v1, A-1155463 1 nM): 71.2806 and 66.4229 and 63.7452
- Raw data of Independent repeat of CBPA11-v1 vs CBPA11-v1-LD3v3 (CBPA11-v1, A-1155463 3.16 nM): 80.0965 and 82.8427 and 80.4448
- Normalized data Figure 5e (CBPA11-v1, A-1155463 3.18 nM): 7.202 and 10.0096 and 11.7189
- Normalized data Figure 5e (CBPA11-v1, A-1155463 10 nM): 46.8388 and 51.1661 and 51.2149
- Normalized data of Figure 5b (CBPA11-v1, A-1155463 10 nM): 14.5535 and 13.2638 and 13.0086
- Raw data of Figure 5b (CBPA11-v1, A-1155463 10 nM): 123.839 and 111.135 and 108.599
- Raw data of Independent repeat of CBPA11-v1 vs CBPA11-v1-LD3v3 (CBPA11-v1, A-1155463 10 nM): 462.474 and 463.658 and 418.386
- Raw data of Independent repeat of CBPA11-v1 vs CBPA11-v1-LD3v3 (CBPA11-v1, A-1155463 31.6 nM): 571.289 and 570.216 and 457.441
- Normalized data Figure 5e (CBPA11-v1, A-1155463 31.8 nM): 63.7218 and 71.158 and 71.088
- Normalized data of Figure 5b (CBPA11-v1, A-1155463 31.8 nM): 45.8074 and 33.2331 and 44.7698
- Raw data of Figure 5b (CBPA11-v1, A-1155463 31.8 nM): 389.784 and 278.454 and 373.749
- Normalized data Figure 5e (CBPA11-v1, A-1155463 100 nM): 98.9083 and 100
- Normalized data of Figure 5b (CBPA11-v1, A-1155463 100 nM): 66.3164 and 72.6195 and 72.7718
- Raw data of Figure 5b (CBPA11-v1, A-1155463 100 nM): 564.299 and 608.466 and 607.516
- Raw data of Independent repeat of CBPA11-v1 vs CBPA11-v1-LD3v3 (CBPA11-v1, A-1155463 100 nM): 770.33 and 757.162 and 752.74
- Raw data of Independent repeat of CBPA11-v1 vs CBPA11-v1-LD3v3 (CBPA11-v1, A-1155463 316 nM): 692.583 and 694.97 and 762.999
- Normalized data Figure 5e (CBPA11-v1, A-1155463 318 nM): 100 and 89.6838 and 88.8002
- Normalized data of Figure 5b (CBPA11-v1, A-1155463 318 nM): 100
- Raw data of Figure 5b (CBPA11-v1, A-1155463 318 nM): 850.92 and 837.883 and 834.824
- Normalized data Figure 5e (CBPA11-v1, A-1155463 1000 nM): 87.8736 and 79.7319 and 71.766
- Normalized data of Figure 5b (CBPA11-v1, A-1155463 1000 nM): 69.8009 and 76.8483 and 84.4115
- Raw data of Figure 5b (CBPA11-v1, A-1155463 1000 nM): 593.95 and 643.898 and 704.687
- Raw data of Independent repeat of CBPA11-v1 vs CBPA11-v1-LD3v3 (CBPA11-v1, A-1155463 1000 nM): 543.865 and 540.678 and 577.914
- Raw data of Independent repeat of CBPA11-v1 vs CBPA11-v1-LD3v3 (CBPA11-v1, A-1155463 3160 nM): 413.782 and 413.648 and 344.2
- Normalized data Figure 5e (CBPA11-v1, A-1155463 3180 nM): 51.7606 and 52.3661 and 51.7462
- Normalized data of Figure 5b (CBPA11-v1, A-1155463 3180 nM): 53.3499 and 60.9077 and 57.5176
- Raw data of Figure 5b (CBPA11-v1, A-1155463 3180 nM): 453.965 and 510.335 and 480.171
- Normalized data Figure 5e (CBPA11-v1, A-1155463 10000 nM): 19.9955 and 19.9571 and 22.5422
- Normalized data of Figure 5b (CBPA11-v1, A-1155463 10000 nM): 33.8321 and 33.8547 and 35.5742
- Raw data of Figure 5b (CBPA11-v1, A-1155463 10000 nM): 287.884 and 283.663 and 296.982
- Raw data of Independent repeat of CBPA11-v1 vs CBPA11-v1-LD3v3 (CBPA11-v1, A-1155463 10000 nM): 129.42 and 154.739 and 117.07
- Normalized data Figure 5e (CBPA11-v1-BclXLv2, A-1155463 1 nM): 21.782 and 18.7434 and 19.0174
- Normalized data Figure 5e (CBPA11-v1-BclXLv2, A-1155463 3.18 nM): 30.7821 and 38.1789 and 36.4445
- Normalized data Figure 5e (CBPA11-v1-BclXLv2, A-1155463 10 nM): 85.4791 and 79.6848 and 85.0591
- Normalized data Figure 5e (CBPA11-v1-BclXLv2, A-1155463 31.8 nM): 84.8971 and 95.7911 and 86.6879
- Normalized data Figure 5e (CBPA11-v1-BclXLv2, A-1155463 100 nM): 100 and 90.6768
- Normalized data Figure 5e (CBPA11-v1-BclXLv2, A-1155463 318 nM): 91.2979 and 98.815 and 100
- Normalized data Figure 5e (CBPA11-v1-BclXLv2, A-1155463 1000 nM): 86.9949 and 91.0394 and 83.6084
- Normalized data Figure 5e (CBPA11-v1-BclXLv2, A-1155463 3180 nM): 69.3324 and 72.9533 and 70.3736
- Normalized data Figure 5e (CBPA11-v1-BclXLv2, A-1155463 10000 nM): 38.0946 and 36.2941 and 35.5843
- Raw data of Independent repeat of CBPA11-v1 vs CBPA11-v1-LD3v3 (CBPA11-v1-LD3v3, A-1155463 0.01 nM): 17.2788 and 15.3201 and 15.4842
